Assay results reported in patent US20260159536A1, “AKR1C3-ACTIVATED DNA ALKYLATING AGENT, AND MEDICAL APPLICATION THEREOF” (ASCENTAWITS PHARMACEUTICALS, LTD., priority 2021, published 2026).

Key:
[1] = test system: human lung cancer NCI-H460-Luc2 cells (intracranial); assay: In vivo pharmacodynamics, NCI-H460-Luc2 intracranial inoculation CDX model; set-up: species or system BALB/c nude mice; settings: for Bioluminescence Value (Day 11) / T/C (%) / TGI (%): i.v. QWx3, Day 11
Experimental: The experiment was divided into groups of test drug Paclitaxel 20 mg/kg group, Compound A 2 mg/kg, 4 mg/kg and 8 mg/kg groups and 10% ethanol+10% polyoxyethylene castor oil+80% glucose injection DSW (pH 7.42) vehicle control group (Vehicle group), with 6 mice per group. […] The positive drug Paclitaxel 20 mg/kg group was administered by intraperitoneal injection and administered once a week for 3 weeks.
The pharmacodynamic analysis of each group in the human NCI-H460-luc intracranial inoculation model was performed based on the measured bioluminescence values on day 11 after administration, and the results were shown in Table 14.

[2] = test system: HuPrime model LI6643 human liver cancer; assay: In vivo pharmacodynamics, liver cancer LI6643 PDX model (Compound A, Sorafenib; section 4.8); set-up: species or system BALB/c nude mice; settings: for Relative tumor volume (x ± S) / T/C (%) / TGI (%) / Tumor volume (x ± S): QDx5, 2 days off, 2 weeks off, QDx5, i.p.
Experimental: Experiment Instruction: BALB/c nude mice were subcutaneously inoculated with HuPrime® model LI6643 tumor blocks to establish a subcutaneous transplantation tumor model of human liver cancer. […] The efficacy was evaluated according to the relative tumor inhibition rate TGI (%), and the safety was evaluated according to the change in body weight and the death of the animals.

With O=[N+]([O-])c1ccc(C(OP(=O)(N2CC2)N2CC2)C(F)(F)F)cc1Oc1ccc(-c2ccc(F)cc2)c(F)c1 (racemic) [Compound A] the “Bioluminescence Value (Day 11)” value ([1]; 2 mg/kg) was 7.62 ± 2.10 ×10^5 photon/second, the “T/C (%)” value ([1]; 2 mg/kg) was 0.24% and the “TGI (%)” value ([1]; 2 mg/kg) was 99.80%. For the same molecule, the “Bioluminescence Value (Day 11)” value ([1]; 4 mg/kg) was 1.62 ± 0.30 ×10^5 photon/second, the “T/C (%)” value ([1]; 4 mg/kg) was 0.05% and the “TGI (%)” value ([1]; 4 mg/kg) was 100.03%. The “Bioluminescence Value (Day 11)” value ([1]; 8 mg/kg) was 1.78 ± 0.42 ×10^5 photon/second, the “T/C (%)” value ([1]; 8 mg/kg) was 0.06% and the “TGI (%)” value ([1]; 8 mg/kg) was 100.03%. The body weight change ([1]; 2, 4, 8 mg/kg i.v.) was “little change”, the Tumor volume ([2]; 1.25 mg/kg i.p., Day 0) was 126.02 mm^3 and the Tumor volume ([2]; 1.25 mg/kg i.p., Day 4) was 181.97 mm^3. The Tumor volume ([2]; 1.25 mg/kg i.p., Day 7) was 270.85 mm^3, the Tumor volume ([2]; 1.25 mg/kg i.p., Day 11) was 264.04 mm^3 and the Tumor volume ([2]; 1.25 mg/kg i.p., Day 14) was 197.40 mm^3. For the same molecule, the Tumor volume ([2]; 1.25 mg/kg i.p., Day 18) was 177.65 mm^3, the Tumor volume ([2]; 1.25 mg/kg i.p., Day 21) was 102.13 mm^3 and the Tumor volume ([2]; 1.25 mg/kg i.p., Day 25) was 90.41 mm^3. It also gave a Tumor volume ([2]; 1.25 mg/kg i.p., Day 28) of 73.75 mm^3, a Tumor volume ([2]; 1.25 mg/kg i.p., Day 32) of 49.39 mm^3 and a Tumor volume ([2]; 1.25 mg/kg i.p., Day 35) of 35.61 mm^3. The Tumor volume ([2]; 1.25 mg/kg i.p., Day 39) was 31.79 mm^3, the Tumor volume ([2]; 1.25 mg/kg i.p., Day 42) was 25.59 mm^3 and the Tumor volume ([2]; 1.25 mg/kg i.p., Day 46) was 19.34 mm^3. For the same molecule, the Tumor volume ([2]; 1.25 mg/kg i.p., Day 49) was 12.51 mm^3, the Tumor volume ([2]; 1.25 mg/kg i.p., Day 53) was 9.04 mm^3 and the “Relative tumor volume (x ± S)” value ([2]; 1.25 mg/kg, Day 35) was 0.27 ± 0.14. The “T/C (%)” value ([2]; 1.25 mg/kg, Day 35) was 1.89%, the “TGI (%)” value ([2]; 1.25 mg/kg, Day 35) was 98.11% and the “Tumor volume (x ± S)” value ([2]; 1.25 mg/kg, Day 35) was 35.61 ± 18.63. It also gave a Tumor volume ([2]; 2.5 mg/kg i.p., Day 0) of 125.92 mm^3, a Tumor volume ([2]; 2.5 mg/kg i.p., Day 4) of 199.12 mm^3 and a Tumor volume ([2]; 2.5 mg/kg i.p., Day 7) of 278.32 mm^3. The Tumor volume ([2]; 2.5 mg/kg i.p., Day 11) was 191.74 mm^3, the Tumor volume ([2]; 2.5 mg/kg i.p., Day 14) was 167.14 mm^3 and the Tumor volume ([2]; 2.5 mg/kg i.p., Day 18) was 154.33 mm^3. It also gave a Tumor volume ([2]; 2.5 mg/kg i.p., Day 21) of 100.94 mm^3, a Tumor volume ([2]; 2.5 mg/kg i.p., Day 25) of 103.28 mm^3 and a Tumor volume ([2]; 2.5 mg/kg i.p., Day 28) of 93.12 mm^3. For the same molecule, the Tumor volume ([2]; 2.5 mg/kg i.p., Day 32) was 74.85 mm^3, the Tumor volume ([2]; 2.5 mg/kg i.p., Day 35) was 56.62 mm^3 and the Tumor volume ([2]; 2.5 mg/kg i.p., Day 39) was 39.85 mm^3. The Tumor volume ([2]; 2.5 mg/kg i.p., Day 42) was 27.34 mm^3, the Tumor volume ([2]; 2.5 mg/kg i.p., Day 46) was 14.83 mm^3 and the Tumor volume ([2]; 2.5 mg/kg i.p., Day 49) was 12.00 mm^3. The Tumor volume ([2]; 2.5 mg/kg i.p., Day 53) was 12.86 mm^3, the “Relative tumor volume (x ± S)” value ([2]; 2.5 mg/kg, Day 35) was 0.45 ± 0.07 and the “T/C (%)” value ([2]; 2.5 mg/kg, Day 35) was 3.19%. For the same molecule, the “TGI (%)” value ([2]; 2.5 mg/kg, Day 35) was 96.81%, the “Tumor volume (x ± S)” value ([2]; 2.5 mg/kg, Day 35) was 56.62 ± 9.62 and the Tumor volume ([2]; 5 mg/kg i.p., Day 0) was 126.93 mm^3. The Tumor volume ([2]; 5 mg/kg i.p., Day 4) was 178.97 mm^3, the Tumor volume ([2]; 5 mg/kg i.p., Day 7) was 214.95 mm^3 and the Tumor volume ([2]; 5 mg/kg i.p., Day 11) was 132.13 mm^3. The Tumor volume ([2]; 5 mg/kg i.p., Day 14) was 63.74 mm^3 and the Tumor volume ([2]; 5 mg/kg i.p., Day 18) was 60.36 mm^3.
